Common to all, as to assay: DTP human tumour cell line panel, 48 h
Test [1] deals with 786-0 renal.
For test [2], the system named is DU-145 prostate.
Test [3] has as its system MALME-3M melanoma.
The test system of test [4] is NCI-H226 lung.
Test [5] deals with NCI/ADR-RES ovarian.
Test [6] relates to OVCAR-5 ovarian.
Test [7] relates to OVCAR-8 ovarian.
The subject of test [8] is SK-MEL-28 melanoma.

Where “and” joins values, the source holds several entries; their conditions need not be identical. Identical values can stand only once.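 1) Cells in 96-well plates. 2) Compound, 48 h, 5 concentrations. 3) Linear interpolation between surrounding doses. 4) Unreached endpoint = highest concentration. GI50 marks 50% less growth. TGI denotes the concentration required for complete inhibition of growth.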 Some results are limits rather than exact numbers.

In the case of `S=C(NCCNC(=S)[S][Sn]([c]1ccccc1)([c]1ccccc1)[c]1ccccc1)[S][Sn]([c]1ccccc1)([c]1ccccc1)[c]1ccccc1`, the concentration for 50% growth inhibition (GI50) in test [1] is 0.0366 µM; in test [2], 0.0181 µM; in test [3] it was 0.0687 µM; in test [4] it was 0.0639 µM; in test [5], 0.0184 µM; in test [6] it was 0.0496 µM. In addition, the GI50 was 0.0445 µM in test [7] and 0.0237 µM in test [8]. The total growth inhibition concentration (TGI) in test [1] is 0.104 µM; in test [2], 0.0542 µM; in test [3], 0.201 µM; in test [4], 0.144 µM; in test [5], 0.0976 µM; in test [6] it was 0.123 µM. Further, the values for the total growth inhibition concentration (TGI) in test [7] and in test [8] were 0.202 µM and 0.0817 µM, respectively.

For the compound `CC(N)(/C=C/c1ccccc1)C(=O)O` (stereo not drawn), the TGI in test [1], in test [3], in test [4], in test [5], in test [6] and in test [7] was more than 100 µM each time. In test [8], this compound came in with a total growth inhibition concentration (TGI) of more than 100 µM.

Consider `c1ccc2cc(NCNc3ccc4ccccc4c3)ccc2c1`, for which the TGI in test [1] came to 40.8 µM; in test [2], 27.4 µM; in test [3] it was 20 µM; in test [4] it was 46.5 µM; in test [5], 72.5 µM; in test [6], 51.5 µM. Moreover, the total growth inhibition concentration (TGI) in test [7] was 58.2 µM; in test [8], more than 88.9 µM.

For the compound `COc1ccc2c(c1)[nH]c(=O)c1c3ccccc3cn21`, the GI50 is 0.0413 µM in test [1], 0.0213 µM in test [5], 0.101 µM in test [6] and 0.0581 µM in test [7]. For the same compound, the TGI is 1.84 µM and 2.16 µM in test [1]; 11.9 µM in test [2]; 14.9 µM in test [3]; 0.0575 µM in test [5]; 7.86 µM and 5.56 µM in test [6]; 2.36 µM and 5.18 µM in test [7].

Take `CC(C)(C)[Si](C)(C)OC1[C@@H](O[Si](C)(C)C(C)(C)C)[C@@H](CNC(=O)NC(=O)CF)O[C@H]1n1cnc2c(NC(=O)Nc3ccccc3)ncnc21` (stereo partly drawn): the GI50 in test [1] is 7.46 µM; in test [2], 17.7 µM; in test [3], 30.8 µM; in test [4] it was 5.5 µM; in test [5], 48.5 µM; in test [6], 15.9 µM. Further, the GI50 in test [7] is 12.8 µM; in test [8], more than 50 µM. The TGI in test [1] is 15.9 µM; in test [2], more than 50 µM; in test [3], more than 50 µM; in test [4], more than 50 µM; in test [5], more than 50 µM; in test [6], more than 50 µM. The concentration for total growth inhibition (TGI) in test [7] and in test [8] was more than 50 µM in each case.

As for `Clc1ccc(Nc2ccnc(N3CCN(c4ccnc5cc(Cl)ccc45)CC3)n2)cc1`, the GI50 in test [1] was 2.38 µM; in test [2], 4.8 µM; in test [3], 2.32 µM; in test [4], 3.96 µM; in test [5], 2.68 µM; in test [7] it was 3.15 µM. The total growth inhibition concentration (TGI) in test [1] is 7.88 µM; in test [2] it was 31.6 µM; in test [3], 9.82 µM; in test [4] it was 23.4 µM; in test [5], 7.83 µM; in test [7], 21.3 µM.

Take `N#C[Se]CCN1C(=O)C2C(C1=O)[C@H]1C=C[C@@H]2S1` (stereo partly drawn): the GI50 in test [1] was 1.97 µM; in test [3], 1.53 µM; in test [5], 2.4 µM; in test [6], 2.56 µM; in test [7], 2.11 µM; in test [8], 1.92 µM. The TGI in test [1] was 3.68 µM; in test [3] it was 3.65 µM; in test [5], 7.18 µM; in test [6], 6.4 µM; in test [7], 5.26 µM; in test [8], 5.02 µM.

Consider `O=c1[nH]c(=O)c2cc3cc(C4CC(O)C(CO)O4)ccc3cc2[nH]1` (stereo not drawn), for which the GI50 in test [1], in test [2], in test [4], in test [5], in test [6] and in test [7] was more than 100 µM throughout. In addition, the GI50 in test [8] is more than 100 µM. The TGI in test [1], in test [2], in test [4], in test [5], in test [6] and in test [7] was more than 100 µM in each case. The compound also registered a TGI in test [8] of more than 100 µM.

`CCCCCCCCCCCC(=O)N1CCN(C(C)=O)CC1`: the GI50 was 16.9 µM in test [1]; 35 µM in test [2]; 26.9 µM in test [3]; 27.9 µM in test [4]; 25.9 µM in test [5]; 21.2 µM in test [6]. In addition, in test [7], the GI50 is 29.3 µM. Also, the TGI in test [1] was 31.1 µM; in test [2], more than 100 µM; in test [3], 52.9 µM; in test [4], 77.3 µM; in test [5], 72.6 µM; in test [6], 48.5 µM. This compound also gave a concentration for total growth inhibition (TGI) in test [7] of more than 100 µM.

For the compound `CCc1nc(N)nc(N)c1-c1ccc2nnn(O)c2c1`, the TGI in test [1], in test [2], in test [4], in test [5], in test [6] and in test [7] was more than 100 µM each time. The concentration for total growth inhibition (TGI) in test [8] was more than 100 µM.

Consider `COc1ccc(Cn2cc3c(c2-c2ccccc2)CCc2cnoc2-3)cc1OC`, for which the GI50 in test [1] is 2.24 µM; in test [4], 5.75 µM; in test [5] it was 0.324 µM; in test [6], 6.2 µM; in test [7], 3.48 µM; in test [8], 26.3 µM. Further, the total growth inhibition concentration (TGI) in test [1] is more than 100 µM; in test [4], more than 100 µM; in test [5] it was 1.91 µM; in test [6] it was more than 100 µM; in test [7], more than 100 µM; in test [8], more than 100 µM.
